Where two headings read alike, the source gives them in different places.
Tests used:
CysLT2 = target: T1, CysLT2 (Homo sapiens, UniProt Q9NS75); assay: Binding assay CysLT2; conditions: 100 nM
T1 construct: Eurofins Cerep (external service)
T1 sequence (Q9NS75 1-346): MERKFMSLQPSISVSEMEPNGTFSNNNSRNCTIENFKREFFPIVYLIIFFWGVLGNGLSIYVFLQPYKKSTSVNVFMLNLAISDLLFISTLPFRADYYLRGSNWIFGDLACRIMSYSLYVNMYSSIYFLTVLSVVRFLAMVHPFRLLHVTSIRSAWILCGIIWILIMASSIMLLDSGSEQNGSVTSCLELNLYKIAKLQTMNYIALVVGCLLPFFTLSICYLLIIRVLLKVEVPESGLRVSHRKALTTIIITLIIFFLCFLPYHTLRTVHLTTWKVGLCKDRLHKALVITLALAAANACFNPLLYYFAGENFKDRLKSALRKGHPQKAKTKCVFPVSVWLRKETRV

CXCR3 = target: T2, CXCR3 (Homo sapiens, UniProt P49682); assay: Cellular functional assay CXCR3
T2 sequence (P49682 1-368): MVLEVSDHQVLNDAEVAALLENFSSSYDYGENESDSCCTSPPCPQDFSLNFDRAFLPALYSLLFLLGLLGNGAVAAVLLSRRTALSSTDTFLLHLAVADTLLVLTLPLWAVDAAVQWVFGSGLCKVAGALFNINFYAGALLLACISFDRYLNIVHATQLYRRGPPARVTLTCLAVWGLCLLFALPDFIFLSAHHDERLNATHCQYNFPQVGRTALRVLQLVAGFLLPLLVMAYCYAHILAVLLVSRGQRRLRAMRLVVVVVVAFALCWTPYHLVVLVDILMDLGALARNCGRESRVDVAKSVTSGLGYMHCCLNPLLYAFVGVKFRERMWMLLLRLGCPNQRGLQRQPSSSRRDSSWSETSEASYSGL

CXCR5 = target: T3, CXCR5 (Homo sapiens, UniProt P32302); assay: Cellular functional assay CXCR5
T3 sequence (P32302 1-372): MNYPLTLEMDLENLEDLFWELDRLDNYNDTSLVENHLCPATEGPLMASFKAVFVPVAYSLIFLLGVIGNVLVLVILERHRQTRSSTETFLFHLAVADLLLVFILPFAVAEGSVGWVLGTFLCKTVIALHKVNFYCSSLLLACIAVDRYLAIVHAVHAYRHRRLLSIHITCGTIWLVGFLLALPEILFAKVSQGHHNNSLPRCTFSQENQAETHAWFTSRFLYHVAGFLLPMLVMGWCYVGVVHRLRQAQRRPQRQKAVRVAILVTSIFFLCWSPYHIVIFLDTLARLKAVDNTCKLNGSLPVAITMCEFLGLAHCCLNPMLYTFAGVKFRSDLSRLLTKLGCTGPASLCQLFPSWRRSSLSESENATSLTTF

[1] = antagonist effect, 100 nM, single replicates 1st and 2nd, 0.1 µM
[2] = read-out: % Inhibition of control agonist response
[3] = read-out: Agonist Response (% of Control), Mean, antagonist effect, 100 nM, mean of 2
[4] = read-out: Agonist Response (% of Control), antagonist effect, 100 nM, single replicates 1st and 2nd

`Cc1ccc(-c2nnc(SCC(=O)Nc3nccs3)[nH]2)cc1` [Compound 9] was tested, and the remaining activity at 0.1 µM (CysLT2; mean of 2, read-out: % Of control specific binding, Mean) was 101%, the inhibition at 0.1 µM (CysLT2; read-out: % Inhibition of control specific binding) was -1% and the “% Of control specific binding” value (CysLT2; single replicates 1 and 2, 0.1 µM) was 103.4%. The remaining activity at 0.1 µM (CysLT2; single replicates 1 and 2, read-out: % Of control specific binding) was 97.9%, the “Agonist Response (% of Control)” value (CXCR3; [1]) was 102.1% and the inhibition at 0.1 µM (CXCR3; [2]) was 0.3%. For the same compound, the activity at 0.1 µM (CXCR3; [3]) was 102%, the activity at 0.1 µM (CXCR3; [4]) was 103% and the “Agonist Response (% of Control)” value (CXCR5; [1]) was 99.7%. For the same compound, the inhibition at 0.1 µM (CXCR5; [2]) was 1.2%, the activity at 0.1 µM (CXCR5; [3]) was 102% and the activity at 0.1 µM (CXCR5; [4]) was 103%.

Source: PMC7176092, “Development of the first in vivo GPR17 ligand through an iterative drug discovery pipeline: A novel disease-modifying strategy for multiple sclerosis” (PLoS ONE, 2020)
